{
  "source": "patent US20200078379A1",
  "about": "“DEFEROXAMINE DERIVATIVES AS MEDICAMENTS” (BIOTECHNOLOGICKY USTAV AV CR, V.V.I., priority 2017, published 2020)",
  "key": {"MCF7 cells [1]": {"test_system": "MCF7 cells", "test": "OCR and ECAR, Seahorse instrument", "type": "cell-based, human", "conditions": "1 hour incubation", "excerpt": "Application of compound 2 leads to marked inhibition of cellular respiration as evidenced by two independent methods: the Oxygraph instrument (Rohlenova, K., Sachaphibulkij, K., Stursa, J., Bezawork-Geleta, A., Blecha, J., Endaya, B., Werner, L., Cerny, J., Zobalova, R., Goodwin, J., Spacek, T., Alizadeh, P. E., Yan, B., Nguyen, M. N., Vondrusova, M., Sobol, M., Jezek, P., Hozak, P., Truksa, J., Rohlena, J., Dong, L. F., & Neuzil, J. (2017) Selective Disruption of Respiratory Supercomplexes as a New Strategy to Suppress Her2high Breast Cancer. Antioxid. Redox. Signal., 26, 84-103) (Table 6) and Seahorse instrument (Table 7). For Seahorse analysis, 20.000 or 30.000 cells were seeded in 96 well plates and incubated with compound 2 for 1 hour. Afterwards, oxygen consumption rate (OCR) and extracellular acidification rate (ECAR) were measured in three cycles of 3 minutes preceded by 3 minutes of mixing, using a Seahorse XFe96 analyzer (Agilent). Results express the mean values of the three cycles."}, "MDA-MB-231 cells [2]": {"test_system": "MDA-MB-231 cells", "test": "cellular proliferation, continuous confluence monitoring via Juli FL", "type": "cell-based, human", "conditions": "for Final confluence: MDA-MB-231, 48 hrs", "description": "(§1) We also tested the ability of compound 2 to suppress proliferation of cancer cells by an alternative approach via the real time monitoring with a cellular analyser Juli FL. In brief, MCF7 or MDA-MB-231 cells were seeded in a 6-well plate the day before to reach approximately 20% confluence on the following day. Next day, the camera of the instrument was focused on a particular field with approximately 20% confluence and cells were continuously monitored, recording the confluence and visual appearance every 30 minutes for 48 hrs. Values were then expressed either as simple confluence at the end of the experiment or as slope of the line representing the confluence during a given period of time (Table 10). It is clear from the collected data that, in agreement with Xcelligence data, we do see inhibition of proliferation at 1 μM, complete block of proliferation at 2 μM and a cytotoxic effect at 5 μM. The effect is less pronounced in this case as dead cells remain in the monitored field and some are still counted as living cells by the software."}, "MCF7 cells [3]": {"test_system": "MCF7 cells", "test": "cellular proliferation, continuous confluence monitoring via Juli FL", "type": "cell-based, human", "conditions": "for Final confluence: MCF7, 48 hrs", "description": "as §1"}, "T47D cells": {"test_system": "T47D cells", "test": "AnnexinV/PI cell death assay", "type": "cell-based", "conditions": "48 hrs", "description": "(§2) To confirm such findings by an independent method, cell death-inducing potency (cytotoxic efficacy) of DFO and compound 2 have been tested via annexin V/PI staining commonly used as a measure of apoptotic/necrotic cell death. Briefly, cells were seeded in 12-well plate at 100,000 per well, incubated with the selected compounds for 48 hours, then floating cells were spun, adherent cells trypsinized and spun as well followed by the staining with AnnexinV-FITC and PI probes. Cells were then washed with PBS and measured via Fluorescence Activated Sorter.\nSince compound 2 is an iron chelator, we have evaluated the effect of pretreating compound 2 with iron. at a 1:1 ratio by using the Annexin V/PI staining as in example 7."}, "non malignant cells (BJ)": {"test_system": "non malignant cells (BJ)", "test": "AnnexinV/PI cell death assay", "type": "cell-based", "conditions": "for mean percentage of dead cells (AnnexinV/PI): 48 hrs", "description": "as §2\nWe have then analyzed the percentage of death cells by the annexinV/PI staining as described in example 7. We have observed a significant potentiation in cell death induction when gallium was combined with compound 2 (Table 14)"}, "MCF7 cells [4]": {"test_system": "MCF7 cells", "test": "individual cell movement, Juli FL and Image J", "type": "cell-based, human", "description": "Additionally, cells seeded identically as in example 26, were treated with 1 to 5 μM concentrations of compound 2 and movie was recorded via the Juli FL system, enabling monitoring of individual movement of cells. The movement was then analyzed by the Image J program to gain the average travelled distance within a specified time. We detected a significant reduction of the total length of travelled trajectory when cells were exposed to compound 2 (Table 12)"}, "MDA-MB-231 cells [5]": {"test_system": "MDA-MB-231 cells", "test": "crystal violet assay, cellular viability", "type": "cell-based, human", "description": "(§3) Compound 1 and compound 2 were tested in their efficacy to kill malignant MCF7 cancer cells. Briefly, 10.000 cells per well were seeded in a 96-well plat on one day and the next day selected compounds were added and incubated with the cells for 48 hrs. The cells were then fixed with 4% paraformaldehyde, stained with 0.05% crystal violet, washed with PBS, and solubilized in 1% SDS. The absorbance of the plate at 595 nm was then measured, quantifying the number of viable cells.\n(§4) A number of compounds of the present invention were tested for cytotoxicity towards at least some of human breast cancer cell lines (MCF7, MDA-MB-231), human fibroblast (BJ) and murine triple negative breast cancer cell line 4T1 (Table 2)."}, "MCF7 cells [6]": {"test_system": "MCF7 cells", "test": "crystal violet assay, cellular viability", "type": "cell-based, human", "description": "as §3, §4"}, "CFPAC-1 cells": {"test_system": "CFPAC-1 cells", "test": "crystal violet assay, cellular viability", "type": "cell-based", "conditions": "Homo sapiens, CFPAC-1, 48 hours"}, "BxPC-3 cells": {"test_system": "BxPC-3 cells", "test": "crystal violet assay, cellular viability", "type": "cell-based", "conditions": "Homo sapiens, BxPC-3, 48 hours"}},
  "note": "Like-named read-outs stand apart in the source and are kept apart here.",
  "data": [
    {"smiles": "CC(=O)N(O)CCCCCNC(=O)CCC(=O)N(O)CCCCCNC(=O)CCC(=O)N(O)CCCCCN(CCCCCCCCCC[P+](c1ccccc1)(c1ccccc1)c1ccccc1)CCCCCCCCCC[P+](c1ccccc1)(c1ccccc1)c1ccccc1.[Cl-].[Cl-]", "note": "[Compound 2, Triphenyl(3,14,25-trihydroxy-2,10,13,21,24-pentaoxo-31-(10-(triphenylphosphonio)decyl)-3,9,14,20,25,31-hexaazahentetracontan-41-yl)phosphonium chloride]", "values": [
      {"measurement": "Oxygen consumption rate (OCR)", "setting": "MCF7 cells [1]; MCF7, 5 μM", "result": "15.4 pmol*min^−1 10.000 cells^−1"},
      {"measurement": "extracellular acidification rate (ECAR)", "setting": "MCF7 cells [1]; MCF7, 5 μM", "result": "9.69 mpH*min^−1 10.000 cells^−1"},
      {"measurement": "Oxygen consumption rate (OCR)", "setting": "MCF7 cells [1]; MCF7, 10 μM", "result": "9.6 pmol*min^−1 10.000 cells^−1"},
      {"measurement": "extracellular acidification rate (ECAR)", "setting": "MCF7 cells [1]; MCF7, 10 μM", "result": "8.2 mpH*min^−1 10.000 cells^−1"},
      {"measurement": "slope of the confluence line", "setting": "MDA-MB-231 cells [2]; MDA-MB-231, 0-22 h, 1 μM", "result": "0.786 (0.010)"},
      {"measurement": "slope of the confluence line", "setting": "MDA-MB-231 cells [2]; MDA-MB-231, 0-22 h, 2 μM", "result": "0.470 (0.006)"},
      {"measurement": "slope of the confluence line", "setting": "MDA-MB-231 cells [2]; MDA-MB-231, 0-22 h, 5 μM", "result": "0.454 (0.014)"},
      {"measurement": "slope of the confluence line", "setting": "MDA-MB-231 cells [2]; MDA-MB-231, 22-48 h, 1 μM", "result": "0.934 (0.014)"},
      {"measurement": "slope of the confluence line", "setting": "MDA-MB-231 cells [2]; MDA-MB-231, 22-48 h, 2 μM", "result": "0.114 (0.011)"},
      {"measurement": "slope of the confluence line", "setting": "MDA-MB-231 cells [2]; MDA-MB-231, 22-48 h, 5 μM", "result": "−0.057 (0.013)"},
      {"measurement": "Final confluence", "setting": "MDA-MB-231 cells [2]; 1 μM", "result": "65.15 (3.3)"},
      {"measurement": "Final confluence", "setting": "MDA-MB-231 cells [2]; 2 μM", "result": "46.58 (2.7)"},
      {"measurement": "Final confluence", "setting": "MDA-MB-231 cells [2]; 5 μM", "result": "25.87 (2.4)"},
      {"measurement": "slope of the confluence line", "setting": "MCF7 cells [3]; MCF7, 0-22 h, 1 μM", "result": "0.655 (0.022)"},
      {"measurement": "slope of the confluence line", "setting": "MCF7 cells [3]; MCF7, 0-22 h, 2 μM", "result": "0.324 (0.016)"},
      {"measurement": "slope of the confluence line", "setting": "MCF7 cells [3]; MCF7, 0-22 h, 5 μM", "result": "0.317 (0.030)"},
      {"measurement": "slope of the confluence line", "setting": "MCF7 cells [3]; MCF7, 22-48 h, 1 μM", "result": "0.510 (0.014)"},
      {"measurement": "slope of the confluence line", "setting": "MCF7 cells [3]; MCF7, 22-48 h, 2 μM", "result": "0.104 (0.007)"},
      {"measurement": "slope of the confluence line", "setting": "MCF7 cells [3]; MCF7, 22-48 h, 5 μM", "result": "−0.076 (0.010)"},
      {"measurement": "Final confluence", "setting": "MCF7 cells [3]; 1 μM", "result": "53.15 (4.0)"},
      {"measurement": "Final confluence", "setting": "MCF7 cells [3]; 2 μM", "result": "32.94 (2.5)"},
      {"measurement": "Final confluence", "setting": "MCF7 cells [3]; 5 μM", "result": "26.54 (1.9)"},
      {"measurement": "mean percentage of dead cells (AnnexinV/PI)", "setting": "T47D cells; 5 μM", "result": "38.3 (5.8) %"},
      {"measurement": "mean percentage of dead cells (AnnexinV/PI)", "setting": "T47D cells; 10 μM", "result": "41.2 (3.1) %"},
      {"measurement": "mean percentage of dead cells (AnnexinV/PI)", "setting": "T47D cells; 20 μM", "result": "93.6 (1.3) %"},
      {"measurement": "mean percentage of dead cells (AnnexinV/PI)", "setting": "non malignant cells (BJ); 5 μM", "result": 6.7, "unit": "%"},
      {"measurement": "mean percentage of dead cells (AnnexinV/PI)", "setting": "non malignant cells (BJ); 10 μM", "result": 9.0, "unit": "%"},
      {"measurement": "mean percentage of dead cells (AnnexinV/PI)", "setting": "non malignant cells (BJ); 20 μM", "result": 29.8, "unit": "%"},
      {"measurement": "concentrations at which toxic effect could be detected in non-malignant BJ cells", "setting": "non malignant cells (BJ); AnnexinV/PI, 48 hours", "result": "higher than 2004"},
      {"measurement": "percentage of death cells by annexinV/PI staining", "setting": "non malignant cells (BJ); ratio Ga:compound 2 0:1, 10 μM compound 2 alone", "result": "9.0 (3.5)"},
      {"measurement": "speed of the movement", "setting": "MCF7 cells [4]; MCF7, 1 μM", "result": "0.16 (0.06) μm*min^−1"},
      {"measurement": "travelled distance of an individual cell between frames", "setting": "MCF7 cells [4]; MCF7, 1 μM", "result": "4.4 (1.4) μm"},
      {"measurement": "speed of the movement", "setting": "MCF7 cells [4]; MCF7, 2 μM", "result": "0.13 (0.05) μm*min^−1"},
      {"measurement": "travelled distance of an individual cell between frames", "setting": "MCF7 cells [4]; MCF7, 2 μM", "result": "3.9 (1.5) μm"},
      {"measurement": "speed of the movement", "setting": "MCF7 cells [4]; MCF7, 5 μM", "result": "0.12 (0.07) μm*min^−1"},
      {"measurement": "travelled distance of an individual cell between frames", "setting": "MCF7 cells [4]; MCF7, 5 μM", "result": "3.1 (0.7) μm"},
      {"measurement": "Selectivity index (IC50 non-malignant/IC50 malignant)", "setting": "MDA-MB-231 cells [5]; BJ vs MDA-MB-231, 48 hours", "result": 2.64},
      {"measurement": "IC50", "setting": "MDA-MB-231 cells [5]; Homo sapiens, MDA-MB-231, 48 h, read-out: IC50 cellular viability", "result": 5.4, "unit": "µM"},
      {"measurement": "Selectivity index (IC50 non-malignant/IC50 malignant)", "setting": "MCF7 cells [6]; BJ vs MCF7, 48 hours", "result": 12.43},
      {"measurement": "IC50", "setting": "MCF7 cells [6]; Homo sapiens, MCF7, 48 h, crystal violet, read-out: IC50 cellular viability", "result": 1.2, "unit": "µM"},
      {"measurement": "IC50", "setting": "MCF7 cells [6]; Homo sapiens, MCF7, MCF7 Parental, read-out: IC50 crystal violet", "result": 1.5, "unit": "µM"},
      {"measurement": "viability at 1 µM", "setting": "MCF7 cells [6]; Homo sapiens, MCF7, 1 μM, 48 hrs, crystal violet, read-out: mean percentage of viable cells compared to non-treated controls", "result": 56.9, "unit": "%"},
      {"measurement": "viability at 2 µM", "setting": "MCF7 cells [6]; Homo sapiens, MCF7, 2 μM, 48 hrs, crystal violet, read-out: mean percentage of viable cells compared to non-treated controls", "result": 20, "unit": "%"},
      {"measurement": "viability at 5 µM", "setting": "MCF7 cells [6]; Homo sapiens, MCF7, 5 μM, 48 hrs, crystal violet, read-out: mean percentage of viable cells compared to non-treated controls", "result": 10, "unit": "%"},
      {"measurement": "viability at 10 µM", "setting": "MCF7 cells [6]; Homo sapiens, MCF7, 10 μM, 48 hrs, crystal violet, read-out: mean percentage of viable cells compared to non-treated controls", "result": 12.1, "unit": "%"},
      {"measurement": "IC50", "setting": "CFPAC-1 cells", "result": 6.9, "unit": "µM"},
      {"measurement": "IC50", "setting": "BxPC-3 cells", "result": 1.7, "unit": "µM"}
    ]}
  ]
}
